# Data as given in patent US20250263390A1, “NOVEL SUBSTITUTED 6,7-DIHYDRO-5H-BENZO[7]ANNULENE COMPOUNDS AND THEIR DERIVATIVES, PROCESSES FOR THEIR PREPARATION AND THERAPEUTIC USES THEREOF” (SANOFI, priority 2022, published 2025).
# Target: T1, ERα (Homo sapiens, UniProt P03372)
# T1 construct: host or cells: MCF7
# T1 sequence (P03372 1-595): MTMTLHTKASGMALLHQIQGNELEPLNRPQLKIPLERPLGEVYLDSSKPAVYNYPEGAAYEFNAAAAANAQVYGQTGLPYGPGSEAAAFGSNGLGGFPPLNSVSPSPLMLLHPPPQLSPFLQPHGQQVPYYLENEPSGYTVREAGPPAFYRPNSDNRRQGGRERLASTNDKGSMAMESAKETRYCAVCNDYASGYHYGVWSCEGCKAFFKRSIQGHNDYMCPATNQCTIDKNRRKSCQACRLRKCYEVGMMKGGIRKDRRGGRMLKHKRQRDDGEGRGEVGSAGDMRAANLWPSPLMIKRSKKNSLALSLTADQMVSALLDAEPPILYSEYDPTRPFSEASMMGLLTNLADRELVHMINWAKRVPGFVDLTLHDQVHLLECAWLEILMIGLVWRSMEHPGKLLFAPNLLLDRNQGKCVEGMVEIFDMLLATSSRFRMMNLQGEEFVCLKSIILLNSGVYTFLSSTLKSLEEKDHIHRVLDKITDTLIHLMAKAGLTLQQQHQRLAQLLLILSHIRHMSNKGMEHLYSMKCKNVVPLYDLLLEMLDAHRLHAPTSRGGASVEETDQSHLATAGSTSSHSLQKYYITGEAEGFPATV
# Test: Estrogen receptor degradation activity: breast cancer cell ERα in cell western assay
# Assay type: cell-based
# Conditions: MCF7 cells, 4 hours, relative to fulvestrant 0.1 μM positive control
# In short: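 MCF7 cells in phenol red-free medium with 5% charcoal-stripped FBS, 4 h exposure to 9-point 1:5 dilutions (final 0.3–0.0000018 μM). ERα immunostained in fixed cells and normalised to DNA dye; % decrease scaled between DMSO and 0.1 μM fulvestrant, IC50 reported in nM.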
row,Compound,% Degradation At 0.3 μM
1,"O=C(O)c1ccc2c(c1)CCCC(c1cccc3c1OCCC3)=C2c1ccc(CC2CN(CCCF)C2)cc1 [Compound 9, 8-(chroman-8-yl)-9-(4-((1-(3-fluoropropyl)azetidin-3-yl)methyl)phenyl)-6,7-dihydro-5H-benzo[7]annulene-3-carboxylic acid]",88%
2,"Cc1c(OC(F)F)cccc1C1=C(c2ccc(CC3CN(CCCF)C3)cc2)c2ccc(C(=O)O)cc2CCC1 [Compound 14, 8-(3-(difluoromethoxy)-2-methylphenyl)-9-(4-((1-(3-fluoropropyl)azetidin-3-yl)methyl)phenyl)-6,7-dihydro-5H-benzo[7]annulene-3-carboxylic acid]",93%
3,"Cc1ccc(C(F)F)c(C2=C(c3ccc(CC4CN(CCCF)C4)cc3)c3ccc(C(=O)O)cc3CCC2)c1 [Compound 23, 8-(2-(difluoromethyl)-5-methylphenyl)-9-(4-((1-(3-fluoropropyl)azetidin-3-yl)methyl)phenyl)-6,7-dihydro-5H-benzo[7]annulene-3-carboxylic acid]",91%
4,"COc1cccc(C2=C(c3ccc(CC4CN(CCCF)C4)cc3)c3ccc(C(=O)O)cc3CCC2)c1C [Compound 7, 9-(4-((1-(3-fluoropropyl)azetidin-3-yl)methyl)phenyl)-8-(3-methoxy-2-methylphenyl)-6,7-dihydro-5H-benzo[7]annulene-3-carboxylic acid]",93%
5,"O=C(O)C(F)(F)F.O=C(O)c1ccc2c(c1)CCCC(CCCO)=C2c1ccc(CC2CN(CCCF)C2)cc1 [Compound 15, 9-(4-((1-(3-fluoropropyl)azetidin-3-yl)methyl)phenyl)-8-(3-hydroxypropyl)-6,7-dihydro-5H-benzo[7]annulene-3-carboxylic acid, 2,2,2-trifluoroacetic acid]",100%

# Now from value to compound:
row,% Degradation At 0.3 μM,Compound
1,93%,"CCc1c(C2=C(c3ccc(CC4CN(CCCF)C4)cc3)c3ccc(C(=O)O)cc3CCC2)cccc1C(F)(F)F [Compound 67, 8-(2-ethyl-3-(trifluoromethyl)phenyl)-9-(4-((1-(3-fluoropropyl)azetidin-3-yl)methyl)phenyl)-6,7-dihydro-5H-benzo[7]annulene-3-carboxylic acid]"
2,96%,"COc1ccc(C2=C(c3ccc(CC4CN(CCCF)C4)cc3)c3ccc(C(=O)O)cc3CCC2)cc1OC [Compound 71, 8-(3,4-dimethoxyphenyl)-9-(4-((1-(3-fluoropropyl)azetidin-3-yl)methyl)phenyl)-6,7-dihydro-5H-benzo[7]annulene-3-carboxylic acid]"
3,90%,"O=C(O)c1ccc2c(c1)CCCC(c1ccc(C(F)(F)F)c(O)c1)=C2c1ccc(CC2CN(CCCF)C2)cc1 [Compound 52, 9-(4-((1-(3-fluoropropyl)azetidin-3-yl)methyl)phenyl)-8-(3-hydroxy-4-(trifluoromethyl)phenyl)-6,7-dihydro-5H-benzo[7]annulene-3-carboxylic acid]"
4,93%,"O=C(O)c1ccc2c(c1)CCCC(c1ccc(OC(F)(F)F)cc1)=C2c1ccc(CC2CN(CCCF)C2)cc1 [Compound 27, 9-(4-((1-(3-fluoropropyl)azetidin-3-yl)methyl)phenyl)-8-(4-(trifluoromethoxy)phenyl)-6,7-dihydro-5H-benzo[7]annulene-3-carboxylic acid]"
5,100%,"Cc1c(C2=C(c3ccc(CC4CN(CCCF)C4)cc3)c3ccc(C(=O)O)cc3CCC2)ccc(C(F)(F)F)c1F.Cl [Compound 64, 8-(3-fluoro-2-methyl-4-(trifluoromethyl)phenyl)-9-(4-((1-(3-fluoropropyl)azetidin-3-yl)methyl)phenyl)-6,7-dihydro-5H-benzo[7]annulene-3-carboxylic acid, hydrochloride]"
